# Laboratory results as given in patent US8367873B2, “Phenyl-substituted bicyclooctane-1,3-dione derivatives” (Bayer Cropscience AG, priority 2008, dated 2013).
# Key:
# Format in all cases: in vivo
# Alopecurus myosuroides = assay: Herbicidal post-emergence action; conditions: post-emergence method; for herbicidal effect against ALOMY (Alopecurus myosuroides): 80 g/ha; for pest or weed control at 80 g/ha: Alopecurus myosuroides, 504 h, read-out: herbicidal effect against ALOMY (Alopecurus myosuroides)
# Method: (§1) Seeds of monocotylidonous and dicotylidonous weed and crop plants are placed in sandy loam in wood fibre pots, covered with soil and cultivated in a greenhouse under good growth conditions. Two to three weeks after sowing, the test plants are treated at the one-leaf stage. The test compounds, formulated as wettable powders (WP), are then with a water application rate of 600 l/ha (converted), with 0.2% of wetting agent added, sprayed onto the green parts of the plants in different amounts. After the test plants have been kept in the greenhouse under optimum growth conditions for about three weeks, the effect of the preparations is assessed visually in comparison to untreated controls (herbicidal effect in percent: 100% effect=the plants have died, 0% effect=like control plants).
# Setaria viridis = assay: Herbicidal post-emergence action; conditions: post-emergence method; for herbicidal effect against SETVI (Setaria viridis): 80 g/ha; for pest or weed control at 80 g/ha: Setaria viridis, 504 h, read-out: herbicidal effect against SETVI (Setaria viridis)
# Method: as §1
# Echinocloa crus-galli = assay: Herbicidal post-emergence action; conditions: post-emergence method; for herbicidal effect against ECHCG (Echinochloa crus-galli): 80 g/ha; for pest or weed control at 80 g/ha: Echinochloa crus-galli, 504 h, read-out: herbicidal effect against ECHCG (Echinochloa crus-galli)
# Method: as §1
# Lolium multiflorum = assay: Herbicidal post-emergence action; conditions: post-emergence method; for herbicidal effect against LOLMU (Lolium multiflorum): 80 g/ha; for pest or weed control at 80 g/ha: Lolium multiflorum, 504 h, read-out: herbicidal effect against LOLMU (Lolium multiflorum)
# Method: as §1
# [1] = system: monocotylidonous and dicotylidonous weed and crop plants; assay: Herbicidal post-emergence action (other test plants); conditions: post-emergence method; for herbicidal effect against AVEFA (Avena fatua): 80 g/ha; for pest or weed control at 80 g/ha: 504 h, Avena fatua, read-out: herbicidal effect against AVEFA (Avena fatua)
# Method: as §1
Compound,herbicidal effect against ALOMY (Alopecurus myosuroides) (Alopecurus myosuroides) [%],herbicidal effect against SETVI (Setaria viridis) (Setaria viridis) [%],herbicidal effect against ECHCG (Echinochloa crus-galli) (Echinocloa crus-galli) [%],herbicidal effect against LOLMU (Lolium multiflorum) (Lolium multiflorum) [%],herbicidal effect against AVEFA (Avena fatua) [1] [%],pest or weed control at 80 g/ha (Alopecurus myosuroides) [%],pest or weed control at 80 g/ha (Setaria viridis) [%],pest or weed control at 80 g/ha (Echinocloa crus-galli) [%],pest or weed control at 80 g/ha (Lolium multiflorum) [%],pest or weed control at 80 g/ha [1] [%]
COc1cc(C)cc(C)c1C1=C(O)C2CC3(CC2C1=O)OCCCO3 (stereo not drawn) [I-a-47],20,100,100,100,80,,,,,
CCc1cc(C)cc(C)c1C1=C(O)C2CC(=O)CC2C1=O (stereo not drawn) [I-a-56],0,100,100,0,0,,,,,
CCc1cc(C)cc(C)c1C1=C(O)C2CC3(CC2C1=O)OCC=CCO3 (stereo not drawn) [I-a-60],100,100,100,100,90,,,,,
CCC(=O)OC1=C(c2c(CC)cc(C)cc2CC)C(=O)C2CC3(CC12)SCCCS3 (stereo not drawn) [I-b-9],90,40,90,40,0,,,,,
CCc1cc(C)cc(CC)c1C1=C(OC(=O)COC)C2CC3(CC2C1=O)SCCCS3 (stereo not drawn) [I-b-10],90,70,90,70,20,,,,,
Cc1cc(C)c(C2=C(OC(=O)C(C)(C)CCl)C3CC(=O)CC3C2=O)c(C)c1 (stereo not drawn) [I-b-52],0,90,100,0,0,,,,,
COCC(=O)OC1=C(c2c(C)cc(C)cc2C)C(=O)C2CC(=O)CC12 (stereo not drawn) [I-b-53],20,90,100,0,0,,,,,
Cc1cc(C)c(C2=C(OC(=O)C(C)C)C3CC(=O)CC3C2=O)c(C)c1 (stereo not drawn) [I-b-54],20,100,100,0,0,,,,,
CCC(C)(C)C(=O)OC1=C(c2c(C)cc(C)cc2C)C(=O)C2CC(=O)CC12 (stereo not drawn) [I-b-55],0,90,90,0,0,,,,,
Cc1cc(C)c(C2=C(OC(=O)CC(C)C)C3CC(=O)CC3C2=O)c(C)c1 (stereo not drawn) [I-b-56],20,100,100,0,0,,,,,
CCC(=O)OC1=C(c2c(C)cc(C)cc2C)C(=O)C2CC(=O)CC12 (stereo not drawn) [I-b-57],0,100,100,0,0,,,,,
C#CCON=C1CC2C(=O)C(c3c(C)cc(C)cc3C)=C(OC(=O)C(C)C)C2C1 (stereo not drawn) [I-b-58],0,20,80,60,0,,,,,
C#CCON=C1CC2C(=O)C(c3c(C)cc(C)cc3C)=C(OC(=O)C(C)(C)C)C2C1 (stereo not drawn) [I-b-59],20,0,80,80,0,,,,,
Cc1cc(C)c(C2=C(OC(=O)C(C)(C)C)C3CC(=O)CC3C2=O)c(C)c1 (stereo not drawn) [I-b-60],0,80,100,0,0,,,,,
CCc1cc(C)cc(C)c1C1=C(OC(=O)C(C)(C)C)C2CC(=O)CC2C1=O (stereo not drawn) [I-b-71],0,100,100,0,0,,,,,
CCc1cc(C)cc(CC)c1C1=C(OC(=O)OC)[C@H]2C[C@@]3(COC(C)(C)O3)C[C@H]2C1=O [I-c-1],,,,,,100,40,60,100,60
CCOC(=O)OC1=C(c2c(CC)cc(C)cc2CC)C(=O)C2CC3(CC12)SCCCS3 (stereo not drawn) [I-c-16],0,30,90,80,30,,,,,
CCOC(=O)OC1=C(c2c(CC)cc(C)cc2CC)C(=O)C2CC(=O)CC12 (stereo not drawn) [I-c-17],,,,,,30,90,100,40,0
CCc1cc(C)cc(CC)c1C1=C(OC(=O)OC)C2CC3(CC2C1=O)SCCCS3 (stereo not drawn) [I-c-20],90,100,100,100,90,,,,,
CCOC(=O)OC1=C(c2c(CC)cc(C)cc2CC)C(=O)C2CC(=NOC(C)(C)C)CC12 (stereo not drawn) [I-c-38],70,30,80,90,0,,,,,
CCc1cc(C)cc(CC)c1C1=C(OC(=O)OC)C2CC(=O)CC2C1=O (stereo not drawn) [I-c-42],0,100,100,0,0,,,,,
CCc1cc(C)cc(CC)c1C1=C(O)[C@H]2CC3(C[C@H]2C1=O)SCCCS3 [I-f-1],,,,,,80,80,90,90,40
Cc1cc(C)c(C2=C([O-])C3CC4(CC3C2=O)OC(C)CC(C)O4)c(C)c1.[Na+] (stereo not drawn) [I-f-3],90,80,90,90,0,,,,,
Cc1cc(C)c(C2=C([O-])C3CC4(CC3C2=O)OCCCCO4)c(C)c1.[Na+] (stereo not drawn) [I-f-10],100,90,90,100,80,,,,,
